The text below walks through data of PMC8327648 (Acta Pharmaceutica Sinica. B, 2021).

The IC50 is the concentration that gives 50% inhibition.

The target of one data set is proteinase K (Parengyodontium album, UniProt P06873). The following applies: n = 3.
The next data set concerns trypsin. As to conditions: n = 3.
In the next data set the test system is SARS-CoV-2 PsV. The following applies: 12 h.
Data set [1] concerns SARS-CoV-2 S protein-mediated cell–cell fusion. The following applies: 2 h.
The next data set deals with pseudotyped HCoV-NL63. As to conditions: 12 h.
Another data set concerns authentic SARS-CoV-2. As to conditions: 48 h.
The next data set has as its system authentic HCoV-OC43. The following applies: 36 h.

proteinase K, sequence (P06873 106-384): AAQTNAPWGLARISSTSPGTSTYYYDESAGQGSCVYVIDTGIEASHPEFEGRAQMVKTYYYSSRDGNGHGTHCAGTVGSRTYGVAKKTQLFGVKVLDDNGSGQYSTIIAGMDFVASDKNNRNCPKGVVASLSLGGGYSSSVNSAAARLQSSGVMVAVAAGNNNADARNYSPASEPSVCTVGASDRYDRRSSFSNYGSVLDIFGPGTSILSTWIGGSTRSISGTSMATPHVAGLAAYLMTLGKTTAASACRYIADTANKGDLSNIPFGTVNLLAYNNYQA

In the case of `CC[C@H](C)[C@H](NC(=O)[C@H](C)NC(=O)[C@H](CCC(=O)O)NC(=O)[C@H](CCC(=O)O)NC(=O)[C@H](CC(C)C)NC(=O)[C@H](CCCCN)NC(=O)[C@H](CCCCN)NC(=O)[C@H](CCSC)NC(=O)[C@H](CCC(=O)O)NC(=O)[C@H](Cc1ccc(O)cc1)NC(=O)[C@H](CCC(=O)O)NC(=O)[C@H](CC(C)C)NC(=O)[C@H](CC(=O)O)NC(=O)[C@H](CC(C)C)NC(=O)[C@H](Cc1ccccc1)NC(=O)[C@@H](NC(=O)[C@@H](NC(=O)[C@H](CC(N)=O)NC(=O)[C@@H](NC(=O)[C@H](CCC(N)=O)NC(=O)[C@H](CC(=O)O)NC(=O)[C@H](CC(C)C)NC(=O)[C@@H](N)CO)[C@@H](C)CC)C(C)C)[C@@H](C)O)C(=O)N[C@@H](CCCCN)C(=O)N[C@@H](CCCCN)C(=O)N[C@@H](CC(C)C)C(=O)N[C@@H](CCC(=O)O)C(=O)N[C@@H](CCC(=O)O)C(=O)N[C@@H](CO)C(=O)N[C@@H](Cc1ccc(O)cc1)C(=O)N[C@H](C(=O)N[C@@H](CC(=O)O)C(=O)N[C@@H](CC(C)C)C(=O)N[C@@H](CCCCN)C(=O)N[C@@H](CCC(=O)O)C(=O)N[C@@H](CC(C)C)C(=O)NCC(=O)N[C@@H](CO)C(=O)NCC(=O)N[C@@H](CO)C(=O)NCC(=O)NCCOCCOCCOCCOCCC(=O)N[C@@H](CSCC(=O)O[C@H]1CC[C@@]2(C)C(=CC[C@H]3[C@@H]4CC[C@H]([C@H](C)CCCC(C)C)[C@@]4(C)CC[C@@H]32)C1)C(N)=O)[C@@H](C)CC` [EK1C4], the “sensitivity to proteinase K (residual inhibitory activity over time)” value on proteinase K is reported as “gradually decreased more significantly”. Also, in the data set on trypsin, the “sensitivity to trypsin (residual inhibitory activity over time)” value is listed as “gradually decreased more significantly”. In addition, the IC50 in the data set on SARS-CoV-2 PsV was 7 to 27 nM; in data set [1] it was 3 nM.
With `CC[C@H](C)[C@H](NC(=O)[C@H](C)NC(=O)[C@H](CCC(=O)O)NC(=O)[C@H](CCC(=O)O)NC(=O)[C@H](CC(C)C)NC(=O)[C@H](CCCCN)NC(=O)[C@H](CCCCN)NC(=O)[C@H](CCSC)NC(=O)[C@H](CCC(=O)O)NC(=O)[C@H](Cc1ccc(O)cc1)NC(=O)[C@H](CCC(=O)O)NC(=O)[C@H](CC(C)C)NC(=O)[C@H](CC(=O)O)NC(=O)[C@H](CC(C)C)NC(=O)[C@H](Cc1ccccc1)NC(=O)[C@@H](NC(=O)[C@@H](NC(=O)[C@H](CC(N)=O)NC(=O)[C@@H](NC(=O)[C@H](CCC(N)=O)NC(=O)[C@H](CC(=O)O)NC(=O)[C@H](CC(C)C)NC(=O)[C@@H](N)CO)[C@@H](C)CC)C(C)C)[C@@H](C)O)C(=O)N[C@@H](CCCCN)C(=O)N[C@@H](CCCCN)C(=O)N[C@@H](CC(C)C)C(=O)N[C@@H](CCC(=O)O)C(=O)N[C@@H](CCC(=O)O)C(=O)N[C@@H](CO)C(=O)N[C@@H](Cc1ccc(O)cc1)C(=O)N[C@H](C(=O)N[C@@H](CC(=O)O)C(=O)N[C@@H](CC(C)C)C(=O)N[C@@H](CCCCN)C(=O)N[C@@H](CCC(=O)O)C(=O)N[C@@H](CC(C)C)C(N)=O)[C@@H](C)CC` [EK1], the IC50 came to 1340 nM in the data set on pseudotyped HCoV-NL63, 71 nM in the data set with authentic SARS-CoV-2, 2430 nM in the data set on authentic HCoV-OC43 and 320 nM in data set [1].
